Columns and labels:
system xc− = target: T1, system xc− (Mus musculus, UniProt Q9WTR6); experiment: Extracellular glutamate content in WT cortical cells exposed to OGDR; format: cell-based; settings: 24 h after reperfusion, 10 μM (SAS 500 μM)
T1 construct: endogenous in cells; host or cells: primary cortical cells from E17 wild-type C57BL/6J mouse embryos, exposed to OGDR
T1 sequence (Q9WTR6 1-502): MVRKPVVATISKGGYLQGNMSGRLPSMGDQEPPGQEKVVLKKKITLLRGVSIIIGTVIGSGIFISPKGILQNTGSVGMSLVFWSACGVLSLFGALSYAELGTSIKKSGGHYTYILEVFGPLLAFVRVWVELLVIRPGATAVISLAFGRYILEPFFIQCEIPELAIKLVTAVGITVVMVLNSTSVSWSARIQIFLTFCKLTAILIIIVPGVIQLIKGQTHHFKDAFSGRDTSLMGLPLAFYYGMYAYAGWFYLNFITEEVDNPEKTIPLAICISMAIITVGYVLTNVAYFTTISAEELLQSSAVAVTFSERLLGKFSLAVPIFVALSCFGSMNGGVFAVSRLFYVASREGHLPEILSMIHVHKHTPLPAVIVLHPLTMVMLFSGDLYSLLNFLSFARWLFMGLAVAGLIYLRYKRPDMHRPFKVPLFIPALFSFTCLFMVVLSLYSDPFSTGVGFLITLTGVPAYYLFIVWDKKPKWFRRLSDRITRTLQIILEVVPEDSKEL
T1 sequence (P10852 1-526 partner): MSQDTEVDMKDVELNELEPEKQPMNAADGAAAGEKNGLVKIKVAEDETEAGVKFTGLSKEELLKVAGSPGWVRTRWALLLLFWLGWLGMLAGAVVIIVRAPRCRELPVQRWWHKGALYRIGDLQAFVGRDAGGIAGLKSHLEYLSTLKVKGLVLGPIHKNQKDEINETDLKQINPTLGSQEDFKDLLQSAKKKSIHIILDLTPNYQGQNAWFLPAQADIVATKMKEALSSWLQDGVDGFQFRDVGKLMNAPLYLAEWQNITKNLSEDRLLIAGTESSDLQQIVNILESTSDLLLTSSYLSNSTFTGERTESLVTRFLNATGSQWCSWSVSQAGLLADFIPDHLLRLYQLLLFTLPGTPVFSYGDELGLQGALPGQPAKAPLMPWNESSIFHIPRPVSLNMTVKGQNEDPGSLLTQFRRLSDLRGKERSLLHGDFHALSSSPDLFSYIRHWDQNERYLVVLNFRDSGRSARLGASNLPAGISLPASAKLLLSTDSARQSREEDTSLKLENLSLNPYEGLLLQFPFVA
Description: (§1) Primary cortical cells were prepared from cerebral cortices of wild-type C57BL/6J or homozygote xCT^−/− mouse embryos in embryonic day 17 as previously described with modification (Goldberg M P, Choi D W. Combined oxygen and glucose deprivation in cortical cell culture: calcium-dependent and calcium-independent mechanisms of neuronal injury. The Journal of neuroscience: the official journal of the Society for Neuroscience, 1993; 13(8):3510-24, which is incorporated here by reference).

WT cortical cells = experiment: Lactate dehydrogenase (LDH) level in WT cortical cells after OGD/OGDR; format: cell-based, mouse; settings: OGDR, 24 h after reperfusion, 10 μM (SAS 500 μM)
Description: as §1
The LDH assay was carried out at 24 hours after reperfusion. *P<0.01 compared to drugs-untreated cells (Un), one-way ANOVA. Error bars denote the standard deviation among triplicate experiments.

neurons = experiment: Annexin V flow cytometric apoptosis assay after OGDR, neurons; format: cell-based, mouse; settings: WT cortical cells, 24 h after reperfusion, 10 μM (SAS 500 μM)
Description: (§2) Annexin V staining was performed to determine cell apoptosis using the Annexin V-FITC Apoptosis Detection Kit (Sigma-Aldrich) for 10 min at room temperature according to the manufacturers instructions, and then flow cytometric analysis was performed.
(§3) The three-color staining flow cytometric assay using allophycocyanin-microtubule-associated protein 2 (MAP2) for neuron staining, phycoerythrin (PE)-GFAP for astrocyte staining and FITC-annexin V for apoptotic cell staining was performed to count the numbers of neurons, astrocytes, and apoptotic cells. FIGS. 21A and […] show the results of apoptosis in wild type (WT) and xCT^−/− cortical cells treated with OGDR at 24 h after reperfusion. *P<0.01 compared to WT without OGDR, Student's t-test. ^#P<0.01 compared to WT with OGDR, Student's t-test. From FIGS. 21A and 21B it was observed that that smaller numbers of apoptotic cells were present in xCT^−/− neurons and astrocytes after OGDR treatment.

astrocytes = experiment: Annexin V flow cytometric apoptosis assay after OGDR, astrocytes; format: cell-based, mouse; settings: WT cortical cells, 24 h after reperfusion, 10 μM (SAS 500 μM)
Description: as §2, §3

ischemic cortex = experiment: Microdialysis of extracellular glutamate in ischemic cortex of rats with CIR; format: in vivo, rat
Description: (§4) Eight to ten-week-old male adult male Sprague-Dawley rats, C57BL/6J mice and xCT^−/− mice were anesthetized with 1.5% isoflurane in oxygen, allowed breathing spontaneously, and body temperature was maintained at 37° C. with a heat lamp during surgery for right middle cerebral artery ligation and bilateral common carotid artery clamping as previously described (Chen S T, Hsu C Y, Hogan E L, Maricq H, Balentine J D. A model of focal ischemic stroke in the rat: reproducible extensive cortical infarction. Stroke; a journal of cerebral circulation. 1986; 17(4):738-43, which is incorporated here by reference). Animals were subjected to transient cerebral ischemia for 90 min in rats and 2 h in mice.
Samples were diluted in 20 mM borate buffer at pH 9.0 and were derivatized for 1 min with N-tert-butyloxycarbonyl-L-cysteine and o-phthaldialdehyde. Samples then were separated in a 5-mm C18 reverse-phase column (220×4.6 mm) Sheri-5 (Brownlee), and glutamate was monitored by fluorescence (334 nm excitation and 433 nm emission) using an RF-10AXL fluorescence detector (Shimadzu). Standards of glutamate were assayed before and after the dialysis samples. […]

TUNEL-positive cells = experiment: TUNEL histochemistry in the ipsilateral cerebral hemisphere of rats with CIR; format: in vivo, rat
Description: Animals were subjected to transient cerebral ischemia for 90 min in rats and 2 h in mice.
To detect apoptosis, a TUNEL staining Kit (DeadEnd Fluorimetric TUNEL system; Promega) was used for the TUNEL assay (Shyu W C, Lin S Z, Chiang M F, Chen D C, Su C Y, Wang H J, et al. Secretoneurin promotes neuroprotection and neuronal plasticity via the Jak2/Stat3 pathway in murine models of stroke. The Journal of clinical investigation. 2008; 118(1):133-48, which is incorporated by reference).
(§5) Rats were treated intraperitoneal injection with either vehicle, SAS (5 mg/kg/day) or the mixture of sulfapyridine (5-ASA, 3.12 mg/kg/day) and salicylate (SP, 1.72 mg/kg) for 3 days after brain ischemia.

cortical infarct [1] = experiment: MRI infarct volume in rats with CIR; format: in vivo, rat; settings: day 28 after reperfusion
Description: as §4
MRI was performed on rats under anesthesia in a General Electric imaging system (R4; GE) at 3.0 T. Brains were scanned in 6-8 coronal image slices, each 2 mm thick without any gaps. […] The area of infarct was drawn manually from slice to slice, and the volume was then calculated by internal volume analysis software (Voxtool; GE) (Shyu W C, Lin S Z, Chiang M E, Chen D C, Su C Y, Wang H J, et al. Secretoneurin promotes neuroprotection and neuronal plasticity via the Jak2/Stat3 pathway in murine models of stroke. The Journal of clinical investigation. 2008; 118(1):133-48, which is incorporated by reference). […]

rats with CIR = experiment: Neurological behavioral measurements in rats with CIR; format: in vivo, rat
Description: as §4
Behavioral assessments were performed 3 days before cerebral ischemia and 72 hours after cerebral ischemia. The tests measured body asymmetry and locomotor activity. Furthermore, grip strength was analyzed using Grip Strength Meter (TSE-Systems) as previously described with modification. In brief, the percentage of improvement in grip strength was measured on each fore limb separately and was calculated as the ratio between mean strength of 20 pulls of the side contralateral to the ischemia and the ipsilateral side. In addition, the ratio of grip strength after treatment to baseline was also calculated, and changes were presented as percent of baseline (Shyu W C, Lin S Z, Chiang M F, Chen D C, Su C Y, Wang H J, et al. Secretoneurin promotes neuroprotection and neuronal plasticity via the Jak2/Stat3 pathway in murine models of stroke. The Journal of clinical investigation. 2068; 118(1):133-48, which is incorporated by reference).
as §5

NMDAR = settings: WT cortical cells, OGDR, 24 h after reperfusion; 10 μM (SAS 500 μM)
cortical infarct [2] = experiment: TTC staining infarct volume in rats with CIR; format: in vivo, rat; settings: 30 mg/kg ip for 3 days, compared to vehicle

Row | Structure (SMILES) | OGDR-induced glutamate release (extracellular glutamate content) (system xc−) | LDH levels (WT cortical cells) | apoptosis in neurons (neurons) | apoptosis in astrocytes (astrocytes) | extracellular glutamate content in ischemic cortex (ischemic cortex; 5 mg/kg/day BID for 3 days, 4 to 72 h after reperfusion) | suppression of glutamate efflux in ischemic cortex at different dosages (ischemic cortex; different dosages) | inhibition of TUNEL-positive cells at different dosages (TUNEL-positive cells; different dosages) | number of TUNEL-positive cells (TUNEL-positive cells; ischemic penumbra, 24 h after reperfusion) | cortical infarct size (MRI) (cortical infarct [1]) | locomotor activity (number of vertical movements, vertical activity, vertical movement time) (rats with CIR; between 7 and 28 days after CIR, compared with controls) | improvement in grip strength (rats with CIR; day 28 after reperfusion, compared with control groups) | body asymmetry (rats with CIR; days 7 to 28, compared with control rats) | hyperfunction of NMDAR (binding radioactivity of 18F-FSAG) (NMDAR) | cortical infarct volume (TTC staining) (cortical infarct [2])
1 | O=C(O)c1cc(/N=N/c2ccc(S(=O)(=O)Nc3ccccn3)cc2)ccc1O [sulfasalazine] | inhibited | inhibited | inhibited | inhibited | reduction | inhibited CIR-induced glutamate release in a dose-dependent manner | decreased CIR-induced apoptosis in a dose-dependent manner | significantly reduced | remarkable size reductions | significantly higher | higher percentage of improvement | significantly reduced | inhibited | 
2 | CNC(=O)c1cc(Oc2ccc(NC(=O)Nc3ccc(Cl)c(C(F)(F)F)c3)cc2)ccn1 [sorafenib] | inhibited | inhibited | inhibited | inhibited |  |  |  |  |  |  |  |  | inhibited | significantly smaller

— patent US20160199393A1, “METHODS OF TREATING BRAIN ISCHEMIA OR HYPOXIA” (China Medical University, priority 2015, published 2016)
